Tests used:
Set-up in all cases: key: S, oseltamivir sensitive; R, oseltamivir resistant
NA of A/Udorn/72 = format: biochemical, influenza H3N2 A/Udorn/72
[1] = test system: NA of A/New Caledonia/20/99; format: biochemical, influenza H1N1 A/New Caledonia/20/99
NA of A/Vietnam/1203/04 = NA of A/Vietnam/1203/04 (Influenza A virus, UniProt Q6DPL2); format: biochemical, influenza H5N1 A/Vietnam/1203/04
[2] = test system: NA of A/Vietnam/HN/30408/05; format: biochemical, influenza H5N1 A/Vietnam/HN/30408/05
NA of A/Indonesia/05 = format: biochemical, influenza H5N1 A/Indonesia/05
[3] = test system: NA of A/Egypt-2/14724/NAMRU3/06; format: biochemical, influenza H5N1 A/Egypt-2/14724/NAMRU3/06
[4] = test system: NA of A/Egypt/14725/NAMRU3/06; format: biochemical, influenza H5N1 A/Egypt/14725/NAMRU3/06
NA of A/Hong Kong/156/97 = format: biochemical, influenza H5N1 A/Hong Kong/156/97
[5] = test system: NA of A/duck/Hong Kong/380.5/01; format: biochemical, influenza H5N1 A/duck/Hong Kong/380.5/01

Chain of NA of A/Vietnam/1203/04 (Q6DPL2 whole entry, looked up): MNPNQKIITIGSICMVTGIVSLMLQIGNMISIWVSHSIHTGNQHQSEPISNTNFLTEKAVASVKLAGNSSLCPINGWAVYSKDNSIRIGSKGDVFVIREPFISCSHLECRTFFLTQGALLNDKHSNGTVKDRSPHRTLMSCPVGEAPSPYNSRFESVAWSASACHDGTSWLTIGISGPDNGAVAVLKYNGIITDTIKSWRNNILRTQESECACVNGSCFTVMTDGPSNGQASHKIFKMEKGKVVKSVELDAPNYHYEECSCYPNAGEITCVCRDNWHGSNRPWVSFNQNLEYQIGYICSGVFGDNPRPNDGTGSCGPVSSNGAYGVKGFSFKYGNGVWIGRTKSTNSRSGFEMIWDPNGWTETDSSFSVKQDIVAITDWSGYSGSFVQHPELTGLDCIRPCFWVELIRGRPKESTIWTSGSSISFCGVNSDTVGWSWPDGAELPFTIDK

CCOC(=O)C1=C[C@@H](OC(CC)CC)[C@H](NC(C)=O)[C@@H](N)C1 [Oseltamivir]
Oseltamivir sensitivity of the virus (NA of A/Udorn/72): S^§
Oseltamivir sensitivity of the virus [1]: S
Oseltamivir sensitivity of the virus (NA of A/Vietnam/1203/04): S
Oseltamivir sensitivity of the virus [2]: R
Oseltamivir sensitivity of the virus (NA of A/Indonesia/05): S
Oseltamivir sensitivity of the virus [3]: R
Oseltamivir sensitivity of the virus [4]: R
Oseltamivir sensitivity of the virus (NA of A/Hong Kong/156/97): S
Oseltamivir sensitivity of the virus [5]: R
